In paper PMC7961996, “Small Immunomodulatory Molecules as Potential Therapeutics in Experimental Murine Models of Acute Lung Injury (ALI)/Acute Respiratory Distress Syndrome (ARDS)” (International Journal of Molecular Sciences, 2021):
Where “and” joins values, the source holds several entries; their conditions need not be identical. Equal values may be shown once. Read-outs that look alike come from different tables or passages of the source.

How the values were obtained:
[1] = tested on: CLP-induced sepsis mice; test: CLP-induced lung and organ injury, histopathology scoring; type: in vivo, C57BL6/J mice
Experimental: For CLP-induced lung injury, CLP was performed as previously described by us. As antibiotics are the standard of care in sepsis patients, one dose of imipenem was given SC at 5 mg/kg 30 min after the procedure, followed by two doses of AVR-48 (10 mg/kg, IV) at 16 h and 24 h following the surgery, and sacrificed after 72 h. The sham mice (controls) had the abdominal cavity opened, the cecum was not perforated, and the peritoneum was stitched back.
H&E staining was performed on 5 µm paraffin lung tissue sections following standardized methods. Four to five random images per lung and 4–5 lungs per experimental group were characterized for lung injury score analysis.
Two different scoring systems were used for lung injury scoring, as the experiments were done at different times. The LPS-/hyperoxia-induced ALI scoring was done by DS, while the CLP-induced lung and other organs’ scoring was done by two additional independent investigators (PD and BA). For the hyperoxia- and LPS-induced lung injury, scoring was done on histological sections based on neutrophil infiltration and epithelial injury using the methods as described before with modifications. Four to five random images per lung and 4–5 lungs per experimental group were characterized for lung injury score analysis. We used a 0–4 scoring system in which 0 = no infiltration/injury, 1 = minimal infiltration/injury to 25% of the field, 2 = mild infiltration/injury […] of the field, 3 = moderate infiltration/injury to 75% of the field, and 4 = severe infiltration/diffuse injury. For the CLP-induced ALI, scoring was done following the methodology as reported earlier by a qualified pathologist (BA) in masked manner. Lungs were harvested from all the mice after the endpoint, and lung injury was scored based on the criteria of alveolar damage and vascular congestion and hemorrhage. As CLP-induced sepsis also results in damage to the rest of the viscera, which can contribute to ALI/ARDS, other organs were also scored as above, to determine the recovery potential of AVR-48 as a candidate drug. The following (cells) were taken into account while scoring the injury level followed by recovery after treatment in other vital organs: heart (myocardium), kidney (glomeruli, tubules), gut (mucosal cells, enterocytes), spleen (lymphoid follicles), liver (hepatocytes), brain (neuronal damage), testis (Seminiferous tubules), and lymph nodes. The final scores were calculated on the basis of total percentage of the damaged/recovered area and by the number of areas/High power field (HPF) as reported above.

[2] = Pharmacokinetic (toxicokinetic) study, plasma; type: in vivo, Sprague Dawley rats; settings: for RAUC (RATIO): Day 3 AUC(0-t) / Day 1 AUC(0-t) / Cmax / Tmax / half-life / clearance / Vd / AUC(0-t): plasma; for Cmax / Tmax / half-life / clearance / Vd / AUC(0-t): Sprague Dawley, rat
Experimental: For the PK study of AVR-48 in rats, a formulation consisting of 10% DMSO, 20% tetraglycol, 20% PEG 400, and 50% sterile water was developed. Each preparation was made on the same day of dose administration. The components of the control/vehicle item formulation were added sequentially. Briefly, the appropriate volume of DMSO (10% of the final volume) was measured into a container followed by gradual addition of PEG 400 (20% of the final volume) and sterile water (50% of the final volume) to make up the volume and mixed thoroughly till completely dissolved. The final solution was filtered through a 0.22 µm membrane filter (Millipore Millex® GP PES, St. Louis, MO, USA) into a sterile vial. All PK studies were also conducted with 8–10-week-old male and female Sprague Dawley rats. An additional nine animals/sex/dose were used for PK analysis and blood (approximately 0.3 mL each) was collected from each rat on days 1 and 3 of the treatment period at time points of 5, 30, 60, 90, 120, and 180 min, and 6, 12 h, and 24 h post dose that were randomized to provide a total of three samples/sex for each time point. Samples were collected by jugular venipuncture and the samples were collected into tubes containing the anticoagulant, K3EDTA. The collection of BALF was limited to the terminal time points of 6 h, 12 h, and 24 h. AVR-48 concentrations in the blood and BALF were determined using LC/MS/MS analysis developed in house. PK parameters were estimated using Phoenix pharmacokinetic software (Certara, Princeton, NJ, USA) using a non-compartmental approach consistent with the IV bolus injection.

[3] = AVR-48 10 mg/kg IV x2 after CLP
[4] = after CLP, Mean ± SEM, CLP alone 4.8± 0.2

## CC(=O)N[C@H]1[C@H](Oc2ccc([N+](=O)[O-])cc2)O[C@H](CO)[C@@H](O)[C@@H]1O [AVR-48, N-((2S,3R,4R,5S,6R)-4,5-dihydroxy-6-(hydroxymethyl)-2-(4-nitrophenoxy)tetrahydro-2H-pyran-3-yl) acetamide]
[1]; AVR-48 10 mg/kg IV at 16 h and 24 h, sacrificed after 72 h, p < 0.001
  lung injury score vs CLP group: significant recovery
[1]; [3]
  appearance of the lung (histopathology): decreased inflammation and hemorrhage
  histopathological changes in other vital organs vs CLP-only group: dramatic improvement
[1]; [4]
  Injury score: Brain, Neuronal Damage: 3.6± 0.245
  Injury score: Brain, Vascular Congestion & Hemorrhage: 3.4± 0.245
  Injury score: Gut, MVD: 3.6± 0.245
  Injury score: Gut, Vascular Congestion & Hemorrhage: 3.6± 0.245
  Injury score: Heart, Myocardial Damage: 3.4± 0.245
  Injury score: Heart, Vascular Congestion & Hemorrhage: 3.4± 0.4
  Injury score: Kidney, Glomerular Damage: 3.6± 0.245
  Injury score: Kidney, Glomerular Injury: 3.6± 0.245
  Injury score: Kidney, Vascular Congestion & Hemorrhage: 3.6± 0.245
  Injury score: Liver, Hepatocyte Injury: 3.6± 0.245
  Injury score: Liver, Vascular Congestion & Hemorrhage: 3.6± 0.245
  Injury score: Lung, Alveolar Damage: 3.6± 0.245
  Injury score: Lung, Vascular Congestion and Hemorrhage: 3.6± 0.245
  Injury score: Lymph Node, Follicular Damage: 3.4± 0.245
  Injury score: Spleen, Vascular Congestion & Hemorrhage: 3.6± 0.245
  Injury score: Testis, Tubular Damage: 3.6± 0.245
  Injury score: Testis, Vascular Congestion & Hemorrhage: 3.6± 0.245
[2]; 40 mg/kg IV, Female
  RAUC (RATIO): Day 3 AUC(0-t) / Day 1 AUC(0-t): 0.679
[2]; 40 mg/kg IV, Male
  RAUC (RATIO): Day 3 AUC(0-t) / Day 1 AUC(0-t): 0.928
[2]; 80 mg/kg IV, Female
  RAUC (RATIO): Day 3 AUC(0-t) / Day 1 AUC(0-t): 0.953
[2]; 80 mg/kg IV, Male
  RAUC (RATIO): Day 3 AUC(0-t) / Day 1 AUC(0-t): 0.777
[2]; iv, 40 mg/kg, 40 mg/kg dose IV, read-out: Cmax
  Cmax: 364 ± 9.36 µM
[2]; iv, 80 mg/kg, 80 mg/kg dose IV, read-out: Cmax
  Cmax: 749.3 ± 5.25 µM
[2]; other: IV or IP, 10 mg/kg, single IV or IP 10 mg/kg dose, extrapolated from Cmax at 40 mg/kg, read-out: Cmax in plasma expected for 10 mg/kg
  Cmax: ~91 µM
[2]; Day 1, 40 mg/kg IV, Female
  Tmax: 5 min
[2]; Day 1, 80 mg/kg IV, Female
  Tmax: 5 min
[2]; Day 1, 80 mg/kg IV, Male
  Tmax: 5 min
[2]; Day 3, 40 mg/kg IV, Male
  Tmax: 5 min
[2]; between 40 and 80 mg/kg/day dose groups
  AUC(0-t) dose dependence: increased in a dose-dependent manner
[2]; both sexes, intravenous, 80 mg/kg, both doses (40 and 80 mg/kg), read-out: half-life (T1/2)
  half-life: 1.4 to 2.34 h
[2]; both sexes, intravenous, day 1 and day 3 of dosing, read-out: clearance (CL)
  clearance: 12.4 to 18.3 mL/min/kg
[2]; both sexes, intravenous, day 1 and day 3 of dosing, read-out: volume of distribution (Vd)
  Vd: 1.51 to 3.72 L/kg
[2]; female, iv, 40 mg/kg, Day 1, 40 mg/kg IV, Female
  AUC(0-t): 53900 ± 2860 ng·h/mL
[2]; female, iv, 40 mg/kg, Day 1, 40 mg/kg IV, Female, read-out: Cl (converted)
  clearance: 12.4 mL/min/kg
[2]; female, iv, 40 mg/kg, Day 1, 40 mg/kg IV, Female, read-out: Cmax ± SE
  Cmax: 129000 ng/mL and 377 µM
[2]; female, iv, 40 mg/kg, Day 1, 40 mg/kg IV, Female, read-out: T1/2 (converted)
  half-life: 1.4 h
[2]; female, iv, 40 mg/kg, Day 1, 40 mg/kg IV, Female, read-out: Vd
  Vd: 1.51 L/kg
[2]; female, iv, 40 mg/kg, Day 3, 40 mg/kg IV, Female
  AUC(0-t): 36600 ng·h/mL
[2]; female, iv, 40 mg/kg, Day 3, 40 mg/kg IV, Female, read-out: Cl (converted)
  clearance: 18.3 mL/min/kg
[2]; female, iv, 40 mg/kg, Day 3, 40 mg/kg IV, Female, read-out: Cmax ± SE
  Cmax: 90400 ng/mL and 264 µM
[2]; female, iv, 40 mg/kg, Day 3, 40 mg/kg IV, Female, read-out: T1/2 (converted)
  half-life: 2.34 h
[2]; female, iv, 40 mg/kg, Day 3, 40 mg/kg IV, Female, read-out: Vd
  Vd: 3.72 L/kg
[2]; female, iv, 80 mg/kg, Day 1, 80 mg/kg IV, Female
  AUC(0-t): 101000 ng·h/mL
[2]; female, iv, 80 mg/kg, Day 1, 80 mg/kg IV, Female, read-out: Cl (converted)
  clearance: 13.4 mL/min/kg
[2]; female, iv, 80 mg/kg, Day 1, 80 mg/kg IV, Female, read-out: Cmax ± SE
  Cmax: 237000 ng/mL and 692 µM
[2]; female, iv, 80 mg/kg, Day 1, 80 mg/kg IV, Female, read-out: T1/2 (converted)
  half-life: 1.45 h
[2]; female, iv, 80 mg/kg, Day 1, 80 mg/kg IV, Female, read-out: Vd
  Vd: 1.68 L/kg
[2]; female, iv, 80 mg/kg, Day 3, 80 mg/kg IV, Female
  AUC(0-t): 95800 ng·h/mL
[2]; female, iv, 80 mg/kg, Day 3, 80 mg/kg IV, Female, read-out: Cl (converted)
  clearance: 14 mL/min/kg
[2]; female, iv, 80 mg/kg, Day 3, 80 mg/kg IV, Female, read-out: Cmax ± SE
  Cmax: 227000 ng/mL and 663 µM
[2]; female, iv, 80 mg/kg, Day 3, 80 mg/kg IV, Female, read-out: T1/2 (converted)
  half-life: 2.05 h
[2]; female, iv, 80 mg/kg, Day 3, 80 mg/kg IV, Female, read-out: Vd
  Vd: 2.48 L/kg
[2]; male, iv, 40 mg/kg, Day 1, 40 mg/kg IV, Male
  AUC(0-t): 49800 ± 962 ng·h/mL
[2]; male, iv, 40 mg/kg, Day 1, 40 mg/kg IV, Male, read-out: Cl (converted)
  clearance: 13.4 mL/min/kg
[2]; male, iv, 40 mg/kg, Day 1, 40 mg/kg IV, Male, read-out: Cmax ± SE
  Cmax: 351 µM and 120000 ng/mL
[2]; male, iv, 40 mg/kg, Day 1, 40 mg/kg IV, Male, read-out: T1/2 (converted)
  half-life: 1.64 h
[2]; male, iv, 40 mg/kg, Day 1, 40 mg/kg IV, Male, read-out: Vd
  Vd: 1.91 L/kg
[2]; male, iv, 40 mg/kg, Day 3, 40 mg/kg IV, Male
  AUC(0-t): 46200 ng·h/mL
[2]; male, iv, 40 mg/kg, Day 3, 40 mg/kg IV, Male, read-out: Cl (converted)
  clearance: 14.5 mL/min/kg
[2]; male, iv, 40 mg/kg, Day 3, 40 mg/kg IV, Male, read-out: Cmax ± SE
  Cmax: 115000 ng/mL and 336 µM
[2]; male, iv, 40 mg/kg, Day 3, 40 mg/kg IV, Male, read-out: T1/2 (converted)
  half-life: 2.16 h
[2]; male, iv, 40 mg/kg, Day 3, 40 mg/kg IV, Male, read-out: Vd
  Vd: 2.71 L/kg
[2]; male, iv, 80 mg/kg, Day 1, 80 mg/kg IV, Male
  AUC(0-t): 118000 ng·h/mL
[2]; male, iv, 80 mg/kg, Day 1, 80 mg/kg IV, Male, read-out: Cl (converted)
  clearance: 11.3 mL/min/kg
[2]; male, iv, 80 mg/kg, Day 1, 80 mg/kg IV, Male, read-out: Cmax ± SE
  Cmax: 276000 ng/mL and 806 µM
[2]; male, iv, 80 mg/kg, Day 1, 80 mg/kg IV, Male, read-out: T1/2 (converted)
  half-life: 2.05 h
[2]; male, iv, 80 mg/kg, Day 1, 80 mg/kg IV, Male, read-out: Vd
  Vd: 2.02 L/kg
[2]; male, iv, 80 mg/kg, Day 3, 80 mg/kg IV, Male
  AUC(0-t): 91500 ng·h/mL
[2]; male, iv, 80 mg/kg, Day 3, 80 mg/kg IV, Male, read-out: Cl (converted)
  clearance: 14.7 mL/min/kg
[2]; male, iv, 80 mg/kg, Day 3, 80 mg/kg IV, Male, read-out: Cmax ± SE
  Cmax: 190000 ng/mL and 555 µM
[2]; male, iv, 80 mg/kg, Day 3, 80 mg/kg IV, Male, read-out: T1/2 (converted)
  half-life: 1.42 h
[2]; male, iv, 80 mg/kg, Day 3, 80 mg/kg IV, Male, read-out: Vd
  Vd: 1.8 L/kg
[2]; three days of twice daily administration
  accumulation: no accumulation
